Experiment [1] concerns the target T1, Oxoeicosanoid receptor 1 (Homo sapiens, UniProt Q8TDS5). Nature of the experiment: Agonist activity at human PK-tagged OXER1 expressed in CHOK1 cells assessed as EA-tagged beta-arrestin recruitment by beta-galactosidase enzyme fragment complementation assay relative to control. It is filed as functional, cell-based.
The target of experiment [2] is T1, Oxoeicosanoid receptor 1. Nature of the experiment: Agonist activity at human PK-tagged OXER1 expressed in CHOK1 cells assessed as EA-tagged beta-arrestin recruitment by beta-galactosidase enzyme fragment complementation assay. The format is functional, cell-based.

The term Emax denotes the greatest response seen or fitted, relative to the assay's reference. As usually defined, the EC50 is the concentration giving half of the maximal effect.

T1 sequence (Q8TDS5 whole entry, the tested form may be a part): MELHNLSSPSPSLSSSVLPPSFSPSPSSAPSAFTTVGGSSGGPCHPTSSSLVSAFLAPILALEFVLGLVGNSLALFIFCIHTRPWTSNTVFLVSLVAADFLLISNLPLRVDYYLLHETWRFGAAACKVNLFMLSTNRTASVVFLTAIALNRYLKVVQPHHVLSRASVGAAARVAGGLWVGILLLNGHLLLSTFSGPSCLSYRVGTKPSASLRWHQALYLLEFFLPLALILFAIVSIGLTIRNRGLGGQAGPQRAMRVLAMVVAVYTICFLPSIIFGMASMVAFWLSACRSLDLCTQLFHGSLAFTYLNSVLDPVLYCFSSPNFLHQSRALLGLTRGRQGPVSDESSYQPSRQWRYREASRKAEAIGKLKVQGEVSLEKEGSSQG

For `CC/C=C\C/C=C\C/C=C\C/C=C\C/C=C\C=C\C(=O)CCC(=O)O`, the Emax on Oxoeicosanoid receptor 1 [1] amounted to 23%. The concentration for a half-maximal effect (EC50) at Oxoeicosanoid receptor 1 [2] was > 100 µM.

On to `CCCCC/C=C\C/C=C\C/C=C\C=C\C(=O)CCCC(=O)OC`, for which the Emax on Oxoeicosanoid receptor 1 [1] was 133%. Also, the EC50 on Oxoeicosanoid receptor 1 [2] is 1.54 µM.

Take `CC/C=C\C/C=C\C/C=C\C/C=C\C/C=C\C=C\C(=O)CCC(=O)OC`: the Emax on Oxoeicosanoid receptor 1 [1] is 64%. The EC50 at Oxoeicosanoid receptor 1 [2] was > 100 µM.

Consider `CC/C=C\C/C=C\C/C=C\C/C=C\C=C\C(=O)CCCC(=O)O`, for which the Emax at Oxoeicosanoid receptor 1 [1] came out at 80%. Also, the EC50 on Oxoeicosanoid receptor 1 [2] amounted to 0.38 µM.

With `CC/C=C\C/C=C\C/C=C\C/C=C\C=C\C(=O)CCCC(=O)OC`, at Oxoeicosanoid receptor 1 [1], the Emax amounted to 119%. In addition, on Oxoeicosanoid receptor 1 [2], the EC50 turned out to be 2.08 µM.

`CCCCC/C=C\C/C=C\C/C=C\C=C\C(=O)CCCC(=O)O` [5-OXO-ETE]: the Emax at Oxoeicosanoid receptor 1 [1] stood at 100%. Besides, the EC50 at Oxoeicosanoid receptor 1 [2] is 0.22 µM.

These data come from ChEMBL document CHEMBL4118243, “Synthesis, molecular modelling studies and biological evaluation of new oxoeicosanoid receptor 1 agonists” (Bioorg Med Chem, 2018).
